Results reported in patent publication US20200055839A1 (priority 2017, published 2020).

Tested on: NL-RLuc virus
Assay: Inhibition of HIV replication (NL-RLuc virus, luciferase readout in MT-2 cells)
Assay type: cell-based
Conditions: Human immunodeficiency virus 1, MT2, 120 h, MT-2 cells infected with NL-RLuc virus, 5 days of incubation, 10% FBS, at least 2 experiments
In short: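 EC50 derived via median effect equation from at least 2 experiments, using luciferase expression as virus-growth readout. Replication-competent NL-RLuc reporter virus (nef partly replaced by Renilla luciferase) infected MT-2 cells with serial compound dilutions; 5-day incubation in RPMI 1640 plus 10% FBS.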

Structure (SMILES)	EC50 [nM]
Cc1nc(NCc2ccn[nH]2)c(-c2ccc(OCCc3ccc(F)cc3)cc2)c(N2CCC(C)(C)CC2)c1[C@H](OC(C)(C)C)C(=O)O [Example 30, (S)-2-(6-(((1H-Pyrazol-5-yl)methyl)amino)-4-(4,4-dimethylpiperidin-1-yl)-5-(4-(4-fluorophenethoxy)phenyl)-2-methylpyridin-3-yl)-2-(tert-butoxy)acetic acid]	2
Cc1nc(C#N)c(-c2ccc(CN(C)c3ncnc4c3oc3ccccc34)cc2)c(N2CCC(C)(C)CC2)c1[C@H](OC(C)(C)C)C(=O)O [Example 22, (2S)-2-(tert-Butoxy)-2-[6-cyano-4-(4,4-dimethylpiperidin-1-yl)-2-methyl-5-(4-{[methyl({8-oxa-3,5-diazatricyclo[7.4.0.0^2,7]trideca-1 (9), 2(7), 3,5,10, 12-hexaen-6-yl})amino]methyl}phenyl)pyridin-3-yl]acetic acid]	3
Cc1ncc(-c2ccc(OCCC(C)(C)C)cn2)c(N2CCC(C)(C)CC2)c1[C@H](OC(C)(C)C)C(=O)O [Example 316, (2S)-2-(tert-butoxy)-2-[5-(3,3-dimethylbutoxy)-4′-(4,4-dimethylpiperidin-1-yl)-6′-methyl-[2,3′-bipyridine]-5′-yl]acetic acid]	2
COc1ccc(COc2ccc(-c3cnc(C)c([C@H](OC(C)(C)C)C(=O)O)c3N3CCC(C)(C)CC3)nc2)c(OC)c1 [Example 358, (2S)-2-(tert-butoxy)-2-{5-[(2,4-dimethoxyphenyl)methoxy]-4′-(4,4-dimethylpiperidin-1-yl)-6′-methyl-[2,3′-bipyridine]-5′-yl}acetic acid]	1.2
Cc1ncc(-c2cccc3ccccc23)c(N2CCC(C)(C)CC2)c1[C@H](OC(C)(C)C)C(=O)O [Example 182, (2S)-2-(tert-Butoxy)-2-[4-(4,4-dimethylpiperidin-1-yl)-2-methyl-5-(naphthalen-1-yl)pyridin-3-yl]acetic acid]	27
Cc1ccnc(Nc2nc(C)c([C@H](OC(C)(C)C)C(=O)O)c(N3CCC(C)(C)CC3)c2-c2ccc(OCCc3ccc(F)cc3)cc2)c1 [Example 79, (S)-2-(tert-Butoxy)-2-(4-(4,4-dimethylpiperidin-1-yl)-5-(4-(4-fluorophenethoxy)phenyl)-2-methyl-6-((4-methylpyridin-2-yl)amino)pyridin-3-yl)acetic acid]	6
CC1(C)CCN(c2c(-c3ccc(F)c(F)c3)c(CN3CCC4(CCC4)CC3)nc(Cl)c2[C@H](OC(C)(C)C)C(=O)O)CC1 [Example 207, (S)-2-(6-((7-Azaspiro[3.5]nonan-7-yl)methyl)-2-chloro-5-(3,4-difluorophenyl)-4-(4,4-dimethylpiperidin-1-yl)pyridin-3-yl)-2-(tert-butoxy)acetic acid]	36
COc1cc(-c2cnc(C)c([C@H](OC(C)(C)C)C(=O)O)c2N2CCC(C)(C)CC2)cnc1OCC(C)C [Example 410, (S)-2-(tert-Butoxy)-2-(4-(4,4-dimethylpiperidin-1-yl)-6′-isobutoxy-5′-methoxy-6-methyl-[3,3′-bipyridin]-5-yl)acetic acid]	6
Cc1ncc(-c2cnc(OCCc3ccccc3F)c(F)c2)c(N2CCC(C)(C)CC2)c1[C@H](OC(C)(C)C)C(=O)O [Example 120, (S)-2-(tert-Butoxy)-2-(4-(4,4-dimethylpiperidin-1-yl)-5′-fluoro-6′-(2-fluorophenethoxy)-6-methyl-[3, 3′-bipyridin]-5-yl)acetic acid]	2
Cc1nc(-n2cccn2)c(-c2ccc(OCCc3ccc(F)cc3)cc2)c(N2CCC(C)(C)CC2)c1[C@H](OC(C)(C)C)C(=O)O [Example 62, (S)-2-(tert-Butoxy)-2-(4-(4,4-dimethylpiperidin-1-yl)-5-(4-(4-fluorophenethoxy)phenyl)-2-methyl-6-(1H-pyrazol-1-yl)pyridin-3-yl)acetic acid]	3
CC1(C)CCN(c2c(-c3ccccn3)cnc(Cl)c2[C@H](OC(C)(C)C)C(=O)O)CC1 [Example 223, (2S)-2-(tert-Butoxy)-2-[6′-chloro-4′-(4,4-dimethylpiperidin-1-yl)-[2, 3′-bipyridine]-5′-yl]acetic acid]	15
Cc1ncc(-c2ccc(OCCc3ccccc3F)c(F)c2)c(N2CCC(C)(C)CC2)c1[C@H](OC(C)(C)C)C(=O)O [Example 128, (S)-2-(tert-Butoxy)-2-(4-(4,4-dimethylpiperidin-1-yl)-5-(3-fluoro-4-(2-fluorophenethoxy)phenyl)-2-methylpyridin-3-yl)acetic acid]	2
Cc1nc(N)c(-c2cnc(OCCc3cccc(F)c3)c(F)c2)c(N2CCC(C)(C)CC2)c1[C@H](OC(C)(C)C)C(=O)O [Example 116, (S)-2-(2-Amino-4-(4,4-dimethylpiperidin-1-yl)-5′-fluoro-6′-(3-fluorophenethoxy)-6-methyl-[3, 3′-bipyridin]-5-yl)-2-(tert-butoxy)acetic acid]	1
Cc1ncc(-c2ccc(OCCc3ccc(Cl)cc3)cn2)c(N2CCC(C)(C)CC2)c1[C@H](OC(C)(C)C)C(=O)O [Example 309, (2S)-2-(tert-butoxy)-2-{5-[2-(4-chlorophenyl)ethoxy]-4′-(4,4-dimethylpiperidin-1-yl)-6′-methyl-[2,3′-bipyridine]-5′-yl}acetic acid]	0.4
Cc1ncc(-c2ccc(F)c(F)c2F)c(N2CCC(C)(C)CC2)c1[C@H](OC(C)(C)C)C(=O)O [Example 162, (2S)-2-(tert-Butoxy)-2-[4-(4,4-dimethylpiperidin-1-yl)-2-methyl-5-(2,3,4-trifluorophenyl)pyridin-3-yl]acetic acid]	7
Cc1nc(-c2cnc(C)c([C@H](OC(C)(C)C)C(=O)O)c2N2CCC(C)(C)CC2)ccc1OCCc1ccc(F)cc1 [Example 232, (S)-2-(tert-Butoxy)-2-(4′-(4,4-dimethylpiperidin-1-yl)-5-(4-fluorophenethoxy)-6, 6′-dimethyl-[2, 3′-bipyridin]-5′-yl)acetic acid]	6
Cc1ncc(-c2ccc(OCCc3c(F)cc(F)cc3F)cn2)c(N2CCC(C)(C)CC2)c1[C@H](OC(C)(C)C)C(=O)O [Example 298, (2S)-2-(tert-butoxy)-2-[4′-(4,4-dimethylpiperidin-1-yl)-6′-methyl-5-[2-(2,4,6-trifluorophenyl)ethoxy]-[2,3′-bipyridine]-5′-yl]acetic acid]	1
Cc1ncc(-c2ccc(OCc3ncnc4c3oc3ccccc34)cc2)c(N2CCC(C)(C)CC2)c1[C@H](OC(C)(C)C)C(=O)O [Example 19, (2S)-2-(tert-Butoxy)-2-[4-(4,4-dimethylpiperidin-1-yl)-2-methyl-5-[4-({8-oxa-3,5-diazatricyclo[7.4.0.0^2,7]trideca-1(9), 2(7), 3,5,10,12-hexaen-6-yl}methoxy)phenyl]pyridin-3-yl]acetic acid]	4
Cc1nc(NCCCN2CCN(C)CC2)c(-c2ccc(OCCc3ccc(F)cc3)cc2)c(N2CCC(C)(C)CC2)c1[C@H](OC(C)(C)C)C(=O)O [Example 52, (S)-2-(tert-Butoxy)-2-(4-(4,4-dimethylpiperidin-1-yl)-5-(4-(4-fluorophenethoxy)phenyl)-2-methyl-6-((3-(4-methylpiperazin-1-yl)propyl)amino)pyridin-3-yl)acetic acid]	1
